Test results: patent EP4603105A1, “PHARMACEUTICAL COMPOSITION CONTAINING CYCLIC COMPOUND HAVING SELECTIVE KRAS INHIBITORY EFFECT AGAINST HRAS AND NRAS” (CHUGAI SEIYAKU KABUSHIKI KAISHA, priority 2022, dated 2024)
pIC50: −log10 of the molar value. Where a SMILES comes first, the peptide text is derived from it. Bridges are numbered along the chain shown (N, C = ends). [ ]: non-standard residue; d: D form. The star is where a group is joined. hPhe(3-Cl-4-CF3) = N[C@@H](CCc1ccc(C(F)(F)F)c(Cl)c1)C(=O)O; NPrPhe(4-CF3) = CCCN[C@@H](Cc1ccc(C(F)(F)F)cc1)C(=O)O; Piperazinyl(4-(3-oxetanyl)) = C1OCC1N1CCN(*)CC1; NMeAbu(4,4,4-F3) = CN[C@@H](CC(F)(F)F)C(=O)O; NMeGly(cPent) = CN[C@H](C(=O)O)C1CCCC1; Piperidide(4-Me) = CC1CCN(*)CC1; NMeD = CN[C@@H](CC(=O)O)C(=O)O; NMeL = CN[C@@H](CC(C)C)C(=O)O; Oxazolidin(3-yl) = C1CN(*)CO1; Azetidin(1-yl) = C1CN(*)C1; Morpholide = C1CN(*)CCO1; NMeA = CN[C@@H](C)C(=O)O; Piperidide = C1CCN(*)CC1; Pyrrolidide = C1CCN(*)C1; Ac5c = NC1(C(=O)O)CCCC1; Aze = O=C(O)[C@@H]1CCN1; X11 = CC1(C)CCN(*)C1; Sar = CNCC(=O)O

How the values were obtained:
[1] = biological target: GDP-bound NRAS wild-type protein (Homo sapiens, UniProt P01111); assay: Binding to NRAS by surface plasmon resonance (SPR), KD and KD ratio to KRAS; conditions: ratio of KD for GDP-bound NRAS wild-type protein to KD for KRAS
Sequence of GDP-bound NRAS wild-type protein (P01111 whole entry): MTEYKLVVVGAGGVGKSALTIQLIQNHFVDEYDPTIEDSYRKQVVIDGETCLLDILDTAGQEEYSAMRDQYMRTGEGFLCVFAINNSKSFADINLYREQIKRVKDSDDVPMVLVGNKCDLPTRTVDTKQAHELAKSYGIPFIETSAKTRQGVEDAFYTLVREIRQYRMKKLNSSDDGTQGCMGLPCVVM
Procedure, shortened: (§1)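 Compound binding is evaluated by SPR single-cycle kinetics, with concentrations added intermittently from low to high for 75 s each. Target surfaces carry GDP-loaded biotinylated Avi-RAS at about 100–300 RU, regenerated after each cycle; temperature 30°C. A 1:1 binding model gives KD.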

HRAS wild-type protein = HRAS wild-type protein (Homo sapiens, UniProt P01112); assay: Binding to HRAS by surface plasmon resonance (SPR), KD and KD ratio to KRAS; conditions: ratio of KD for HRAS wild-type protein to KD for KRAS
Sequence of HRAS wild-type protein (P01112 whole entry): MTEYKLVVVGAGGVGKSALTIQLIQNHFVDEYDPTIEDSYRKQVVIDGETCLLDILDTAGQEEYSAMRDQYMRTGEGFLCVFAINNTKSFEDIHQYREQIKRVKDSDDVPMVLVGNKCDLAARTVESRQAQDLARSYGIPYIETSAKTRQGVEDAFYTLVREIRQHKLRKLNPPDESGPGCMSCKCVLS
Procedure, shortened: as §1

[2] = test system: human lung cancer strain NCI-H441; type: cell-based
Procedure, shortened: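 Proliferation was scored by […] measured after the reagent was added to cultures kept at 37°C in 5% carbon dioxide.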

SMILES | pIC50 [2] | NRAS /KRAS [1] | HRAS /KRAS (HRAS wild-type protein)
CCCN1C(=O)CN(C)C(=O)CN(C)C(=O)[C@H]([C@@H](C)CC)NC(=O)[C@H](CC(C)C)N(C)C(=O)C[C@@H](C(=O)N2CCC(C)CC2)N(C)C(=O)[C@H](C2CCCC2)N(C)C(=O)C2(CCCC2)NC(=O)[C@@H]2CCCN2C(=O)[C@H](CCc2ccc(C(F)(F)F)c(Cl)c2)NC(=O)CN(C)C(=O)[C@@H]1Cc1ccc(C(F)(F)F)cc1 [PP0176] ([NMeL]I[Sar][Sar][NPrPhe(4-CF3)][Sar][hPhe(3-Cl-4-CF3)]P[Ac5c][NMeGly(cPent)][NMeD]-{Piperidide(4-Me)}; lactam N-11) | 7.75 | B (a compound having 3 or more and less than 10 is denoted as B) | C (A compound having a KD ratio of 0.1 or more and less than 3 is denoted as C)
CCCN1C(=O)[C@@H]2CCN2C(=O)[C@H](C)N(C)C(=O)[C@H]([C@@H](C)CC)NC(=O)[C@H](CC(C)C)N(C)C(=O)C[C@@H](C(=O)N2CCCCC2)N(C)C(=O)[C@H](C2CCCC2)N(C)C(=O)C2(CCCC2)NC(=O)[C@@H]2CCCN2C(=O)[C@H](CCc2ccc(C(F)(F)F)c(Cl)c2)NC(=O)CN(C)C(=O)[C@@H]1Cc1ccc(C(F)(F)F)cc1 [PP0180] ([NMeL]I[NMeA][Aze][NPrPhe(4-CF3)][Sar][hPhe(3-Cl-4-CF3)]P[Ac5c][NMeGly(cPent)][NMeD]-Piperidide; lactam N-11) | 8.12 | C (A compound having a KD ratio of 0.1 or more and less than 3 is denoted as C) | C (A compound having a KD ratio of 0.1 or more and less than 3 is denoted as C)
CCCN1C(=O)[C@@H]2CCN2C(=O)[C@H](C)N(C)C(=O)[C@H]([C@@H](C)CC)NC(=O)[C@H](CC(C)C)N(C)C(=O)C[C@@H](C(=O)N2CCC2)N(C)C(=O)[C@H](C2CCCC2)N(C)C(=O)C2(CCCC2)NC(=O)[C@@H]2CCCN2C(=O)[C@H](CCc2ccc(C(F)(F)F)c(Cl)c2)NC(=O)CN(C)C(=O)[C@@H]1Cc1ccc(C(F)(F)F)cc1 [PP0181] ([NMeL]I[NMeA][Aze][NPrPhe(4-CF3)][Sar][hPhe(3-Cl-4-CF3)]P[Ac5c][NMeGly(cPent)][NMeD]-{Azetidin(1-yl)}; lactam N-11) | 8.82 | C (A compound having a KD ratio of 0.1 or more and less than 3 is denoted as C) | B (a compound having 3 or more and less than 10 is denoted as B)
CCCN1C(=O)[C@@H]2CCN2C(=O)[C@H](C)N(C)C(=O)[C@H]([C@@H](C)CC)NC(=O)[C@H](CC(C)C)N(C)C(=O)C[C@@H](C(=O)N2CCN(C3COC3)CC2)N(C)C(=O)[C@H](C2CCCC2)N(C)C(=O)C2(CCCC2)NC(=O)[C@@H]2CCCN2C(=O)[C@H](CCc2ccc(C(F)(F)F)c(Cl)c2)NC(=O)CN(C)C(=O)[C@@H]1Cc1ccc(C(F)(F)F)cc1 [PP0184] ([NMeL]I[NMeA][Aze][NPrPhe(4-CF3)][Sar][hPhe(3-Cl-4-CF3)]P[Ac5c][NMeGly(cPent)][NMeD]-{Piperazinyl(4-(3-oxetanyl))}; lactam N-11) | 8.68 | C (A compound having a KD ratio of 0.1 or more and less than 3 is denoted as C) | B (a compound having 3 or more and less than 10 is denoted as B)
CCCN1C(=O)[C@@H]2CCN2C(=O)[C@H](C)N(C)C(=O)[C@H]([C@@H](C)CC)NC(=O)[C@H](CC(C)C)N(C)C(=O)C[C@@H](C(=O)N2CCC(C)CC2)N(C)C(=O)[C@H](C2CCCC2)N(C)C(=O)C2(CCCC2)NC(=O)[C@@H]2CCCN2C(=O)[C@H](CCc2ccc(C(F)(F)F)c(Cl)c2)NC(=O)CN(C)C(=O)[C@@H]1Cc1ccc(C(F)(F)F)cc1 [PP0185] ([NMeL]I[NMeA][Aze][NPrPhe(4-CF3)][Sar][hPhe(3-Cl-4-CF3)]P[Ac5c][NMeGly(cPent)][NMeD]-{Piperidide(4-Me)}; lactam N-11) | 7.49 | C (A compound having a KD ratio of 0.1 or more and less than 3 is denoted as C) | B (a compound having 3 or more and less than 10 is denoted as B)
CCCN1C(=O)[C@@H]2CCN2C(=O)[C@H](C)N(C)C(=O)[C@H]([C@@H](C)CC)NC(=O)[C@H](CC(C)C)N(C)C(=O)C[C@@H](C(=O)N2CCC(C)(C)C2)N(C)C(=O)[C@H](C2CCCC2)N(C)C(=O)C2(CCCC2)NC(=O)[C@@H]2CCCN2C(=O)[C@H](CCc2ccc(C(F)(F)F)c(Cl)c2)NC(=O)CN(C)C(=O)[C@@H]1Cc1ccc(C(F)(F)F)cc1 [PP0186] ([NMeL]I[NMeA][Aze][NPrPhe(4-CF3)][Sar][hPhe(3-Cl-4-CF3)]P[Ac5c][NMeGly(cPent)][NMeD]-X11; lactam N-11) | 7.69 | C (A compound having a KD ratio of 0.1 or more and less than 3 is denoted as C) | B (a compound having 3 or more and less than 10 is denoted as B)
CCCN1C(=O)CN(C)C(=O)CN(C)C(=O)[C@H]([C@@H](C)CC)NC(=O)[C@H](CC(F)(F)F)N(C)C(=O)C[C@@H](C(=O)N2CCOCC2)N(C)C(=O)[C@H](C2CCCC2)N(C)C(=O)C2(CCCC2)NC(=O)[C@@H]2CCCN2C(=O)[C@H](CCc2ccc(C(F)(F)F)c(Cl)c2)NC(=O)CN(C)C(=O)[C@@H]1Cc1ccc(C(F)(F)F)cc1 [PP0187] ([NMeAbu(4,4,4-F3)]I[Sar][Sar][NPrPhe(4-CF3)][Sar][hPhe(3-Cl-4-CF3)]P[Ac5c][NMeGly(cPent)][NMeD]-Morpholide; lactam N-11) | 8.52 | B (a compound having 3 or more and less than 10 is denoted as B) | C (A compound having a KD ratio of 0.1 or more and less than 3 is denoted as C)

Continued by rising pIC50 [2], values first:

pIC50 [2] | SMILES | NRAS /KRAS [1] | HRAS /KRAS (HRAS wild-type protein)
7.46 | CCCN1C(=O)CN(C)C(=O)CN(C)C(=O)[C@H]([C@@H](C)CC)NC(=O)[C@H](CC(C)C)N(C)C(=O)C[C@@H](C(=O)N2CCC(C)(C)C2)N(C)C(=O)[C@H](C2CCCC2)N(C)C(=O)C2(CCCC2)NC(=O)[C@@H]2CCCN2C(=O)[C@H](CCc2ccc(C(F)(F)F)c(Cl)c2)NC(=O)CN(C)C(=O)[C@@H]1Cc1ccc(C(F)(F)F)cc1 [PP0177] ([NMeL]I[Sar][Sar][NPrPhe(4-CF3)][Sar][hPhe(3-Cl-4-CF3)]P[Ac5c][NMeGly(cPent)][NMeD]-X11; lactam N-11) | B (a compound having 3 or more and less than 10 is denoted as B) | C (A compound having a KD ratio of 0.1 or more and less than 3 is denoted as C)
8.18 | CCCN1C(=O)CN(C)C(=O)CN(C)C(=O)[C@H]([C@@H](C)CC)NC(=O)[C@H](CC(C)C)N(C)C(=O)C[C@@H](C(=O)N2CCN(C3COC3)CC2)N(C)C(=O)[C@H](C2CCCC2)N(C)C(=O)C2(CCCC2)NC(=O)[C@@H]2CCCN2C(=O)[C@H](CCc2ccc(C(F)(F)F)c(Cl)c2)NC(=O)CN(C)C(=O)[C@@H]1Cc1ccc(C(F)(F)F)cc1 [PP0175] ([NMeL]I[Sar][Sar][NPrPhe(4-CF3)][Sar][hPhe(3-Cl-4-CF3)]P[Ac5c][NMeGly(cPent)][NMeD]-{Piperazinyl(4-(3-oxetanyl))}; lactam N-11) | B (a compound having 3 or more and less than 10 is denoted as B) | B (a compound having 3 or more and less than 10 is denoted as B)
8.35 | CCCN1C(=O)[C@@H]2CCN2C(=O)[C@H](C)N(C)C(=O)[C@H]([C@@H](C)CC)NC(=O)[C@H](CC(C)C)N(C)C(=O)C[C@@H](C(=O)N2CCCC2)N(C)C(=O)[C@H](C2CCCC2)N(C)C(=O)C2(CCCC2)NC(=O)[C@@H]2CCCN2C(=O)[C@H](CCc2ccc(C(F)(F)F)c(Cl)c2)NC(=O)CN(C)C(=O)[C@@H]1Cc1ccc(C(F)(F)F)cc1 [PP0179] ([NMeL]I[NMeA][Aze][NPrPhe(4-CF3)][Sar][hPhe(3-Cl-4-CF3)]P[Ac5c][NMeGly(cPent)][NMeD]-Pyrrolidide; lactam N-11) | C (A compound having a KD ratio of 0.1 or more and less than 3 is denoted as C) | B (a compound having 3 or more and less than 10 is denoted as B)
8.80 | CCCN1C(=O)[C@@H]2CCN2C(=O)[C@H](C)N(C)C(=O)[C@H]([C@@H](C)CC)NC(=O)[C@H](CC(C)C)N(C)C(=O)C[C@@H](C(=O)N2CCOC2)N(C)C(=O)[C@H](C2CCCC2)N(C)C(=O)C2(CCCC2)NC(=O)[C@@H]2CCCN2C(=O)[C@H](CCc2ccc(C(F)(F)F)c(Cl)c2)NC(=O)CN(C)C(=O)[C@@H]1Cc1ccc(C(F)(F)F)cc1 [PP0183] ([NMeL]I[NMeA][Aze][NPrPhe(4-CF3)][Sar][hPhe(3-Cl-4-CF3)]P[Ac5c][NMeGly(cPent)][NMeD]-{Oxazolidin(3-yl)}; lactam N-11) | C (A compound having a KD ratio of 0.1 or more and less than 3 is denoted as C) | B (a compound having 3 or more and less than 10 is denoted as B)
8.82 | CCCN1C(=O)[C@@H]2CCN2C(=O)[C@H](C)N(C)C(=O)[C@H]([C@@H](C)CC)NC(=O)[C@H](CC(C)C)N(C)C(=O)C[C@@H](C(=O)N(C)C)N(C)C(=O)[C@H](C2CCCC2)N(C)C(=O)C2(CCCC2)NC(=O)[C@@H]2CCCN2C(=O)[C@H](CCc2ccc(C(F)(F)F)c(Cl)c2)NC(=O)CN(C)C(=O)[C@@H]1Cc1ccc(C(F)(F)F)cc1 [PP0178] ([NMeL]I[NMeA][Aze][NPrPhe(4-CF3)][Sar][hPhe(3-Cl-4-CF3)]P[Ac5c][NMeGly(cPent)][NMeD]-NMe2; lactam N-11) | C (A compound having a KD ratio of 0.1 or more and less than 3 is denoted as C) | B (a compound having 3 or more and less than 10 is denoted as B)
